Test results from patent publication US20070154393A1, “Bioassay for volatile low molecular weight insecticides and methods of use” (priority 2005, published 2007).
“Also recorded” adds a separate entry of the source. Where a name gives a salt, the structure may show the parent alone. Read-outs that look alike come from different tables or passages of the source.

Assays:
[1] = tested on: metabolically-resistant Hikone-R strain of Drosophila (elevated cytochrome P450); type: in vivo
Experimental: (§1) Four Drosophila strains were used, all obtained from the Bloomington Drosophila Stock Center (Indiana University; Bloomington, Ind.). The Canton-S strain was used as the insecticide-susceptible standard. […] Two resistant neurological-mutant strains were also tested. […] Flies were reared in 100-ml vials capped with acetate plugs (Fisher Scientific; Suwanee, Ga.) on a commercial diet (JAZZ-MIX; Fisher Scientific). […] Mixed-sex adults, less than 1-wk old, were used in bioassays.
(§2) All volatile insecticide stocks were prepared at 100 μg/μl in analytical grade acetone. Rather than weigh the highly volatile liquid insecticides (i.e., all compounds except benzothiophene), weight was determined based on the density-volume relationship of each compound. […] The insecticide synergists PBO (piperonyl butoxide) and DEF (SSS-tributyl-phosphoro-trithioate) were obtained from Fluka Chemical Co. (Basel, Switzerland) and Mobay Chemical Co. (Kansas City, Mo.). […] Synergist stocks were prepared at 100 μg/ml in analytical grade acetone.
(§3) Briefly, bioassays took place in 0.5-l glass jars with metal lids. Mixed-sex flies were isolated from lab colonies and placed in 4-ml dram vials in groups of ten, along with a dried piece of laboratory diet. The dram vials were capped with open-top septum caps that were covered with fine mesh (held in place by non-toxic glue). For bioassays, the assembled dram vials were placed into the 0.5-l jars along with a folded filter paper “tent” (Whatman #1; Vineland, N.J.). The filter paper was treated with either an insecticide dilution or acetone, the jar was sealed with the metal lid, and the bioassay proceeded for 24-hr at room temperature. Mortality was scored based on a complete lack of movement by the flies. Four concentrations plus an acetone control were tested for all insecticides. Between five and ten replicates were performed for each concentration range on each strain-insecticide combination. Synergist bioassays were performed with a slight modification. Synergist stocks were applied to dram vials at 100 μl per vial to provide assay concentrations of 10 μg per vial. […] After treatment, vials were held at an angle in a fume hood and rotated ¼-turn each minute until the acetone evaporated. Flies and diet were added as above and held for 1-hr. Assays were initiated, run, and scored as above.
(§4) Probit analysis was performed using PROC PROBIT in the SAS software package (SAS Institute; Cary, N.C.). If control mortality ever exceeded 10% in a given replicate, that replicate was discarded.

[2] = tested on: para-ts1 (para-R) strain of Drosophila (sodium channel point mutation); type: in vivo; conditions: significance at p<0.05, method of Robertson and Preisler
Experimental: as §1, §2, §3, §4

[3] = tested on: Rd1 (Rdl-R) strain of Drosophila (GABA-gated chloride channel point mutation); type: in vivo, Drosophila melanogaster
Source text: (§5) Four Drosophila strains were used, all obtained from the Bloomington Drosophila Stock Center (Indiana University; Bloomington, Ind.). The Canton-S strain was used as the insecticide-susceptible standard. The Hikone-R strain is metabolically-resistant with elevated cytochrome P450 levels (Waters et al., 1984; Sundseth et al., 1989; Le Goff et al., 2003; Festucci-Buselli et al., 2005). Hikone-R is resistant to a number of insecticides, including malathion, DDT and neonicotinoids (Sundseth et al., 1989; Daborn et al., 2001). Two resistant neurological-mutant strains were also tested. […] Flies were reared in 100-ml vials capped with acetate plugs (Fisher Scientific; Suwanee, Ga.) on a commercial diet (JAZZ-MIX; Fisher Scientific). Flies were reared on a 12:12 photocycle at 24° C. and 60% relative humidity. Mixed-sex adults, less than 1-wk old, were used in bioassays.
(§6) All experimental materials were purchased from Sigma-Aldrich-Fluka (Milwaukee, Wis.) and were of 99% purity or greater. […] All volatile insecticide stocks were prepared at 100 μg/μl in analytical grade acetone. Rather than weigh the highly volatile liquid insecticides (i.e., all compounds except benzothiophene), weight was determined based on the density-volume relationship of each compound. Four serial dilutions were prepared and tested for each insecticide as described previously (Scharf et al., 2006). The insecticide synergists PBO (piperonyl butoxide) and DEF (SSS-tributyl-phosphoro-trithioate) were obtained from Fluka Chemical Co. (Basel, Switzerland) and Mobay Chemical Co. (Kansas City, Mo.). Both synergists were >95% purity. Synergist stocks were prepared at 100 μg/ml in analytical grade acetone.
(§7) Volatility bioassays were conducted exactly as described in a previous report (Scharf et al., 2006). Briefly, bioassays took place in 0.5-l glass jars with metal lids. Mixed-sex flies were isolated from lab colonies and placed in 4-ml dram vials in groups of ten, along with a dried piece of laboratory diet. The dram vials were capped with open-top septum caps that were covered with fine mesh (held in place by non-toxic glue). For bioassays, the assembled dram vials were placed into the 0.5-l jars along with a folded filter paper “tent” (Whatman #1; Vineland, N.J.). The filter paper was treated with either an insecticide dilution or acetone, the jar was sealed with the metal lid, and the bioassay proceeded for 24-hr at room temperature. Mortality was scored based on a complete lack of movement by the flies. Four concentrations plus an acetone control were tested for all insecticides. Between five and ten replicates were performed for each concentration range on each strain-insecticide combination. Synergist bioassays were performed with a slight modification. Synergist stocks were applied to dram vials at 100 μl per vial to provide assay concentrations of 10 μg per vial. […] After treatment, vials were held at an angle in a fume hood and rotated ¼-turn each minute until the acetone evaporated. Flies and diet were added as above and held for 1-hr. Assays were initiated, run, and scored as above.
(§8) Probit analysis was performed using PROC PROBIT in the SAS software package (SAS Institute; Cary, N.C.). If control mortality ever exceeded 10% in a given replicate, that replicate was discarded. Toxicity and synergist ratios at LC50 were compared statistically using the calculation described by Robertson and Preisler (1992). Using this procedure, ratios with 95% confidence intervals were calculated using a spreadsheet-based program. With this calculation, if confidence intervals include 1.0 then ratios are considered non-significant (p>0.05; Robertson and Preisler, 1992).

[4] = tested on: insecticide-susceptible Drosophila melanogaster (Canton-S strain); type: in vivo; conditions: for LC50 (95% CL): in vivo
Experimental: The insecticide-susceptible Canton-S strain of Drosophila was obtained from the Bloomington Drosophila stock center (Indiana University, Bloomington, Ind.), and used exclusively in all studies. Flies were reared in 100-ml vials capped with acetate plugs (Fisher Scientific; Suwannee, Ga.) on a JAZZ-MIX diet (Fisher) prepared with a 2:1 ratio of water to apple juice. Flies were reared on a 12:12 photocycle at 24° C. and ambient relative humidity. Mixed-sex adults, less than 1-wk old, were used in bioassays.
Flies were briefly anesthetized in rearing vials with a pulse of CO2 and transferred to a CO2 flowbed (Genesee Scientific; San Diego, Calif.). Using a camel hair brush and a 5×5 cm sheet of rice paper, ten flies were placed into 7.0 ml dram vials. Prior to adding flies, each vial received a 0.5 cm^3 block of rearing diet that had been sufficiently dried on a paper towel to remove excessive moisture. The vials were then capped with open-top septum caps (Fisher) that were covered with fine mesh. The mesh was applied to the septum caps in advance using hot glue; it prevented fly escape but readily permitted gas exchange. The flies were allowed 1-hr to recover from the CO2 anesthesia. After one hour, single vials with flies were placed into 0.5 L glass jars, along with a filter paper tent (see FIG. 1). In a fume hood, filter paper tents were treated with insecticide dilutions or acetone for controls. The jars were then rapidly closed tightly with a metal lid. After 24 hours of exposure, mortality was scored with the aid of a magnifying glass.
All test compounds and solvents were >99% purity, and were purchased from Sigma-Aldrich Chemical (Milwaukee, Wis.). See Table 1 for a listing of the test compounds and their structures. Insecticide stock solutions were prepared at a standard concentration of 100 μg/μl in analytical grade acetone. For liquid insecticidal compounds, density in mg/μl was used to calculate weight on a per-volume basis. Stock solutions were held at −20° C. in sealed amber vials. In bioassay jars, filter paper tents were treated with stock volumes ranging from 2 to 20 μl, depending on the inherent toxicity of the test compound. These volumes of insecticide stock provided test concentrations of 200 to 2000 μg insecticide per replicate jar. A range of 4-5 concentrations plus a control were tested for each insecticide, and each range was repeated five times over at least three days. Controls received a volume of acetone identical to the highest insecticide volume that was tested (i.e., 10 μl for menthofuran; 20 μl for all other insecticides). Between uses, bioassay jars and lids were washed in a dishwasher, then baked 12-16 hr at 90° C. in a drying oven.
Probit and regression analyses were performed using the PROC PROBIT and PROC REG procedures, respectively. […] If control mortality ever exceeded 10% in a given replicate, that replicate was discarded.
as §5

[5] = tested on: insecticide-susceptible Canton-S strain of Drosophila; type: in vivo
Experimental: as §6, §7, §8

[6] = tested on: metabolically resistant Hikone-R strain of Drosophila; type: in vivo; conditions: Hikone, FIG. 6
Experimental: as §6, §7, §8

[7] = Table 3, Hikone-R, no synergist, 24 hr
[8] = significance at p<0.05, method of Robertson and Preisler

Row | SMILES | Slope ± Std. Error (probit mortality line) ([1]; Table 2, Hikone-R, 24 hr) | Slope ± Std. Error (probit mortality line) [1, 7] | response of Hikone-R relative to Canton-S (LC50 ratio Hikone÷Canton, FIG. 5), in words [1, 8] | response of para-ts1 relative to Canton-S (LC50 ratio, FIG. 7B), in words [2] | response of Rd1 relative to Canton-S (LC50 ratio, FIG. 7A), in words ([3]; in vivo) | other results
1 | c1ccc2sccc2c1 [Benzothiophene, benzothiophene] | 4.42 ± 0.46 | 4.42 ± 0.46 | significantly enhanced susceptibility; also recorded: greater susceptibility | enhanced susceptibility | significantly enhanced susceptibility | –
2 | CCCCOC=O [Butyl Formate, butyl formate] | – | – | – | non-significant tolerance | – | LC50 ([1]; in vivo): 1570.0 μg insecticide per 0.5 liter of headspace; Slope ± Std. Error (probit mortality line) ([1]; in vivo): 8.82 ± 2.00; LC50 ([3]; in vivo): 1246.0 μg insecticide per 0.5 liter of headspace; response of Rd1 relative to Canton-S (LC50 ratio, FIG. 7A), in words [3, 8]: non-significant tolerance
3 | COP(=O)(OC)OC=C(Cl)Cl [Dichlorvos (DDVP), Dichlorvos, reference compound] | 4.64 ± 0.59 | – | – | – | – | –
4 | O=COCCOC=O [EGDF, ethylene glycol di-formate] | 5.02 ± 2.41 | 5.02 ± 2.41 | significant resistance | – | – | knockdown ([4]; Canton-S, by 2-hr, lasting through 24-hr, in all bioassay replicates): 100%
5 | O=CO [Formic Acid, reference compound] | 3.29 ± 1.02 | – | – | – | – | –
6 | CCCCCCCOC=O [Heptyl Formate, heptyl formate] | – | – | – | – | – | LC50 ([1]; in vivo): 1483.0 μg insecticide per 0.5 liter of headspace; response of Hikone-R relative to Canton-S (LC50 ratio Hikone÷Canton, FIG. 5), in words ([1]; in vivo): non-significant tolerance; LC50 ([3]; in vivo): 1656.6 μg insecticide per 0.5 liter of headspace; response of Rd1 relative to Canton-S (LC50 ratio, FIG. 7A), in words [3, 8]: non-significant tolerance
7 | CCCCCCOC=O [Hexyl Formate, hexyl formate] | 3.26 ± 0.65 | 3.26 ± 0.65 | non-significant tolerance | non-significant tolerance | non-significant tolerance | –
8 | Cc1coc2c1CC[C@H](C)C2 [Menthofuran, menthofuran] | 4.12 ± 0.45 | 4.12 ± 0.45 | – | enhanced susceptibility | significantly enhanced susceptibility | efficacy level when mixed with the P450 inhibitor PBO ([5]; 'levels on the same scale' as MITC and DDVP): < 100 µg/L; effect of PBO treatment on toxicity, in words ([5]; Canton-S, FIG. 6): increased menthofuran toxicity; effect of PBO treatment on toxicity, in words [6]: no effects; response of Hikone-R relative to Canton-S (LC50 ratio Hikone÷Canton, FIG. 5), in words ([1]; significance at p<0.05, method of Robertson and Preisler, listed as mentho-): significantly enhanced susceptibility; response of Hikone-R relative to Canton-S (LC50 ratio Hikone÷Canton, FIG. 5), in words ([1]; significance at p<0.05, method of Robertson and Preisler, listed as menthofuran): significantly more susceptible; also recorded: greater susceptibility; also recorded: enhanced susceptibility
9 | CN=C=S [Methylisothiocyanate (MITC), Methylisothiocyanate, reference compound] | 4.30 ± 0.62 | – | significantly enhanced susceptibility | – | – | –
10 | CCCOC=O [Propyl Formate, propyl formate] | 7.43 ± 1.26 | 7.43 ± 1.26 | – | non-significant tolerance | significant resistance | LC50 (95% CL) [4]: 1833.0 (1787.0 − 1884.0) μg/jar
11 | CC(C)(C)OC=O [t-Butyl Formate, tert-butyl formate] | 44.70 | 44.70 | non-significant tolerance | elevated tolerance; also recorded: significant tolerance | significant resistance; also recorded: significant tolerance | LC50 (95% CL) [4]: 1981.0 (1917.0 − 2048.4) μg/jar
